Experiments:
[1] = target: Carbonic anhydrase 2 (Homo sapiens, UniProt P00918)
[2] = target: Carbonic anhydrase 1 (Homo sapiens, UniProt P00915)
Sequence of Carbonic anhydrase 1 (P00915 whole entry): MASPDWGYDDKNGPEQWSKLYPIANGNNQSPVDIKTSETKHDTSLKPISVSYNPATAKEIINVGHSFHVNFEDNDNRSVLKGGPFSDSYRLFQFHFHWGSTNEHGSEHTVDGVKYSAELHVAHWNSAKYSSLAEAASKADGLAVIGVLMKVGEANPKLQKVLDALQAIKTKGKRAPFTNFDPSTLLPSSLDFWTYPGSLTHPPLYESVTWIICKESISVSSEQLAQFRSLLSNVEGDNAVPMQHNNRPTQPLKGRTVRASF

SMILES	Ki [1]	Ki [2]
C/C(=N/S(N)(=O)=O)c1ccc(N(C)C)cc1	20 nM	–
NS(=O)(=O)NS(=O)(=O)c1cccc(C(=O)O)c1	10 nM	6 nM
NS(=O)(=O)NC(=O)NS(=O)(=O)c1ccc(F)cc1	20 nM	6 nM

The remaining lines, values ahead:

Ki [1]	Ki [2]	SMILES
900 nM	80 nM	O=C(NS(=O)(=O)O)NS(=O)(=O)c1ccc(F)cc1
10 nM	3 nM	NS(=O)(=O)NS(=O)(=O)c1c(F)c(F)c(F)c(F)c1F
1200 nM	50 nM	O=S(=O)(O)NS(=O)(=O)c1c(F)c(F)c(F)c(F)c1F [(PENTAFLUOROPHENYL)SULFONYLSULFAMIC ACID]

— ChEMBL document CHEMBL1135997, “Nonaromatic sulfonamide group as an ideal anchor for potent human carbonic anhydrase inhibitors: role of hydrogen-bonding networks in ligand binding and drug design” (J Med Chem, 2002)
